Measurements published in ChEMBL document CHEMBL3872249, “Computer design, synthesis, and bioactivity analyses of drugs like fingolimod used in the treatment of multiple sclerosis” (Bioorg Med Chem, 2017).
The source made the active and inactive calls. The calls are words filed in the database; no cut-off is given here.

Key:
SK-N-SH [1] = test: Effect on TNF mRNA expression in human SK-N-SH cells at EC10 by qPCR method relative to beta-actin; type: functional
SH-SY5Y [2] = test: Effect on CXCL10 mRNA expression in human SH-SY5Y cells at EC10 by qPCR method relative to beta-actin; type: functional
SK-N-SH [3] = test: Effect on ADORA2A mRNA expression in human SK-N-SH cells at EC10 by qPCR method relative to beta-actin; type: functional
SH-SY5Y [4] = test: Effect on TNFRSF1A mRNA expression in human SH-SY5Y cells at EC10 by qPCR method relative to beta-actin; type: functional
SH-SY5Y [5] = test: Effect on GNAS mRNA expression in human SH-SY5Y cells at EC10 by qPCR method relative to beta-actin; type: functional
SH-SY5Y [6] = test: Effect on PMP22 mRNA expression in human SH-SY5Y cells at EC10 by qPCR method relative to beta-actin; type: functional
SH-SY5Y [7] = test: Effect on VCAM1 mRNA expression in human SH-SY5Y cells at EC10 by qPCR method relative to beta-actin; type: functional
SK-N-SH [8] = test: Effect on ADCY5 mRNA expression in human SK-N-SH cells at EC10 by qPCR method relative to beta-actin; type: functional
SH-SY5Y [9] = test: Effect on DRD2 mRNA expression in human SH-SY5Y cells at EC10 by qPCR method relative to beta-actin; type: functional
U-118-MG [10] = test: Effect on GNAS mRNA expression in human U118MG cells at EC10 by qPCR method relative to beta-actin; type: functional
SK-N-SH [11] = test: Effect on IL10 mRNA expression in human SK-N-SH cells at EC10 by qPCR method relative to beta-actin; type: functional
U-118-MG [12] = test: Effect on IL6 mRNA expression in human U118MG cells at EC10 by qPCR method relative to beta-actin; type: functional
SH-SY5Y [13] = test: Effect on MMP9 mRNA expression in human SH-SY5Y cells at EC10 by qPCR method relative to beta-actin; type: functional
[14] = target: Sphingosine 1-phosphate receptor 1 (Homo sapiens) (UniProt P21453); test: Agonist activity at sphingosine-1-phosphate receptor in human SH-SY5Y cells assessed as increase in cAMP level at EC10 by direct immunoassay; type: functional, cell-based
SH-SY5Y [15] = test: Effect on ADCY5 mRNA expression in human SH-SY5Y cells at EC10 by qPCR method relative to beta-actin; type: functional
U-118-MG [16] = test: Effect on MMP9 mRNA expression in human U118MG cells at EC10 by qPCR method relative to beta-actin; type: functional
SK-N-SH [17] = test: Effect on S1PR1 mRNA expression in human SK-N-SH cells at EC10 by qPCR method relative to beta-actin; type: functional
U-118-MG [18] = test: Effect on TNF mRNA expression in human U118MG cells at EC10 by qPCR method relative to beta-actin; type: functional
U-118-MG [19] = test: Effect on NFKB1 mRNA expression in human U118MG cells at EC10 by qPCR method relative to beta-actin; type: functional
SK-N-SH [20] = test: Effect on EPHA1 mRNA expression in human SK-N-SH cells at EC10 by qPCR method relative to beta-actin; type: functional
U-118-MG [21] = test: Effect on VCAM1 mRNA expression in human U118MG cells at EC10 by qPCR method relative to beta-actin; type: functional
SK-N-SH [22] = test: Effect on CCL2 mRNA expression in human SK-N-SH cells at EC10 by qPCR method relative to beta-actin; type: functional
U-118-MG [23] = test: Effect on ADCY5 mRNA expression in human U118MG cells at EC10 by qPCR method relative to beta-actin; type: functional
SH-SY5Y [24] = test: Effect on CCL2 mRNA expression in human SH-SY5Y cells at EC10 by qPCR method relative to beta-actin; type: functional
SH-SY5Y [25] = test: Effect on ICAM1 mRNA expression in human SH-SY5Y cells at EC10 by qPCR method relative to beta-actin; type: functional
SK-N-SH [26] = test: Effect on TNFRSF1A mRNA expression in human SK-N-SH cells at EC10 by qPCR method relative to beta-actin; type: functional
U-118-MG [27] = test: Effect on PMP22 mRNA expression in human U118MG cells at EC10 by qPCR method relative to beta-actin; type: functional
SH-SY5Y [28] = test: Effect on NFKB1 mRNA expression in human SH-SY5Y cells at EC10 by qPCR method relative to beta-actin; type: functional
[29] = target: Sphingosine 1-phosphate receptor 1 (Homo sapiens) (UniProt P21453); test: Agonist activity at sphingosine-1-phosphate receptor in human U118MG cells assessed as increase in cAMP level at EC10 by direct immunoassay; type: functional, cell-based; details: U-118-MG
SH-SY5Y [30] = test: Effect on TNF mRNA expression in human SH-SY5Y cells at EC10 by qPCR method relative to beta-actin; type: functional
SH-SY5Y [31] = test: Effect on ADORA2A mRNA expression in human SH-SY5Y cells at EC10 by qPCR method relative to beta-actin; type: functional
SH-SY5Y [32] = test: Effect on S1PR1 mRNA expression in human SH-SY5Y cells at EC10 by qPCR method relative to beta-actin; type: functional
SK-N-SH [33] = test: Effect on NFKB1 mRNA expression in human SK-N-SH cells at EC10 by qPCR method relative to beta-actin; type: functional
U-118-MG [34] = test: Effect on IL10 mRNA expression in human U118MG cells at EC10 by qPCR method relative to beta-actin; type: functional
SH-SY5Y [35] = test: Effect on IL10 mRNA expression in human SH-SY5Y cells at EC10 by qPCR method relative to beta-actin; type: functional
SK-N-SH [36] = test: Effect on IL6 mRNA expression in human SK-N-SH cells at EC10 by qPCR method relative to beta-actin; type: functional
SK-N-SH [37] = test: Effect on PMP22 mRNA expression in human SK-N-SH cells at EC10 by qPCR method relative to beta-actin; type: functional
U-118-MG [38] = test: Effect on S1PR1 mRNA expression in human U118MG cells at EC10 by qPCR method relative to beta-actin; type: functional
SK-N-SH [39] = test: Effect on GNAS mRNA expression in human SK-N-SH cells at EC10 by qPCR method relative to beta-actin; type: functional
U-118-MG [40] = test: Effect on ADORA2A mRNA expression in human U118MG cells at EC10 by qPCR method relative to beta-actin; type: functional
[41] = Cytotoxicity against human SK-N-SH cells measured after 24 hrs by crystal-violet staining based assay; type: toxicity, cell-based
SK-N-SH [42] = test: Effect on CXCL10 mRNA expression in human SK-N-SH cells at EC10 by qPCR method relative to beta-actin; type: functional
[43] = target: Sphingosine 1-phosphate receptor 1 (Homo sapiens) (UniProt P21453); test: Agonist activity at sphingosine-1-phosphate receptor human SK-N-SH cells assessed as increase in cAMP level at EC10 by direct immunoassay; type: functional, cell-based

Sphingosine 1-phosphate receptor 1 (Homo sapiens), sequence (P21453 whole entry): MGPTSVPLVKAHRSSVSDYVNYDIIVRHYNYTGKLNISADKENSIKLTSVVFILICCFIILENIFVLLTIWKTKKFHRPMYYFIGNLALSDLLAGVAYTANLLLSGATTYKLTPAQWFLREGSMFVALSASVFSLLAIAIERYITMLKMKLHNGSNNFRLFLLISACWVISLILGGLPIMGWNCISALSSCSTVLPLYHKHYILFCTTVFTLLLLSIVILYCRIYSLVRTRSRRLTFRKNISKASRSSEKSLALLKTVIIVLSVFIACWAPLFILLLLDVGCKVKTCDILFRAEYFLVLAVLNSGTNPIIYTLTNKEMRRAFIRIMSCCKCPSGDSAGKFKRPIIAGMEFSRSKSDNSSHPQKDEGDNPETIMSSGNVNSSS

CCCCCCCCc1ccc(CCC(N)(CO)CO)cc1 [FINGOLIMOD]
fold change (FC) (SK-N-SH [1]): -15.2356 | fold change (FC) (SH-SY5Y [2]): -3.1821 | fold change (FC) (SK-N-SH [3]): -8.1222 | fold change (FC) (SH-SY5Y [4]): -10.091 | fold change (FC) (SH-SY5Y [5]): -3.605 | fold change (FC) (SH-SY5Y [6]): -5.1694 | fold change (FC) (SH-SY5Y [7]): -4.9933 | fold change (FC) (SK-N-SH [8]): -5.1851 | fold change (FC) (SH-SY5Y [9]): -9.8151 | fold change (FC) (U-118-MG [10]): -2.939 | fold change (FC) (SK-N-SH [11]): -4.2704 | fold change (FC) (U-118-MG [12]): -4.4847 | fold change (FC) (SH-SY5Y [13]): -6.6923 | Activity [14]: Active | fold change (FC) (SH-SY5Y [15]): -5.5117 | fold change (FC) (U-118-MG [16]): -6.3039 | fold change (FC) (SK-N-SH [17]): -5.8741 | fold change (FC) (U-118-MG [18]): -5.8716 | fold change (FC) (U-118-MG [19]): -3.1465 | fold change (FC) (SK-N-SH [20]): -3.6983 | fold change (FC) (U-118-MG [21]): -4.7445 | fold change (FC) (SK-N-SH [22]): -11.3481 | fold change (FC) (U-118-MG [23]): -5.5057 | fold change (FC) (SH-SY5Y [24]): -7.8218 | fold change (FC) (SH-SY5Y [25]): -6.0839 | fold change (FC) (SK-N-SH [26]): -3.8155 | fold change (FC) (U-118-MG [27]): -5.8716 | fold change (FC) (SH-SY5Y [28]): -3.9931 | Activity [29]: Active | fold change (FC) (SH-SY5Y [30]): -15.9446 | fold change (FC) (SH-SY5Y [31]): -4.4924 | fold change (FC) (SH-SY5Y [32]): -8.6788 | fold change (FC) (SK-N-SH [33]): -3.6601 | fold change (FC) (U-118-MG [34]): -2.5151 | fold change (FC) (SH-SY5Y [35]): -4.2501 | fold change (FC) (SK-N-SH [36]): -4.6974 | fold change (FC) (SK-N-SH [37]): -3.3914 | fold change (FC) (U-118-MG [38]): -4.1044 | fold change (FC) (SK-N-SH [39]): -6.1024 | fold change (FC) (U-118-MG [40]): -4.9966 | EC10 [41]: 550 nM | fold change (FC) (SK-N-SH [42]): -5.2302 | Activity [43]: Active

CCCCCCCCn1nnnc1-c1ccc(C(O)CC(N)(CO)CO)cc1.Cl (stereo unspecified)
fold change (FC) (SK-N-SH [1]): -4.9674 | fold change (FC) (SH-SY5Y [2]): -3.1588 | fold change (FC) (SK-N-SH [3]): -4.3394 | fold change (FC) (SH-SY5Y [4]): -3.2986 | fold change (FC) (SH-SY5Y [5]): -4.6852 | fold change (FC) (SH-SY5Y [6]): -3.0092 | fold change (FC) (SH-SY5Y [7]): -4.0191 | fold change (FC) (SK-N-SH [8]): -4.6187 | fold change (FC) (SH-SY5Y [9]): -3.4837 | fold change (FC) (U-118-MG [10]): -3.2119 | fold change (FC) (SK-N-SH [11]): -4.6028 | fold change (FC) (U-118-MG [12]): -4.3829 | fold change (FC) (SH-SY5Y [13]): -3.9092 | Activity [14]: Active | fold change (FC) (SH-SY5Y [15]): -4.3188 | fold change (FC) (U-118-MG [16]): -4.5002 | fold change (FC) (SK-N-SH [17]): -4.2281 | fold change (FC) (U-118-MG [18]): -6.5178 | fold change (FC) (U-118-MG [19]): -4.6974 | fold change (FC) (SK-N-SH [20]): -3.7516 | fold change (FC) (U-118-MG [21]): -5.7757 | fold change (FC) (SK-N-SH [22]): -4.9933 | fold change (FC) (U-118-MG [23]): -6.08 | fold change (FC) (SH-SY5Y [24]): -4.1393 | fold change (FC) (SH-SY5Y [25]): -3.763 | fold change (FC) (SK-N-SH [26]): -4.1053 | fold change (FC) (U-118-MG [27]): -5.4523 | fold change (FC) (SH-SY5Y [28]): -3.5415 | Activity [29]: Active | fold change (FC) (SH-SY5Y [30]): -3.511 | fold change (FC) (SH-SY5Y [31]): -4.6048 | fold change (FC) (SH-SY5Y [32]): -5.0215 | fold change (FC) (SK-N-SH [33]): -3.6999 | fold change (FC) (U-118-MG [34]): -2.6793 | fold change (FC) (SH-SY5Y [35]): -3.3797 | fold change (FC) (SK-N-SH [36]): -4.899 | fold change (FC) (SK-N-SH [37]): -5.2416 | fold change (FC) (U-118-MG [38]): -3.8312 | fold change (FC) (SK-N-SH [39]): -4.4537 | fold change (FC) (U-118-MG [40]): -4.4431 | EC10 [41]: 270 nM | fold change (FC) (SK-N-SH [42]): -6.1156 | Activity [43]: Active
